Laboratory results published in ChEMBL document CHEMBL2157938, “Use of structure based design to increase selectivity of pyridyl-cinnoline phosphodiesterase 10A (PDE10A) inhibitors against phosphodiesterase 3 (PDE3)” (Bioorg Med Chem Lett, 2012).

What was measured:
[1] = Inhibition of mouse PDE10A7 using fluorescein labeled CAMP as substrate incubated for 30 mins prior to substrate addition measured after 30 mins by fluorescence polarization assay
[2] = Inhibition of PDE3
[3] = Selectivity ratio of IC50 for PDE3 to IC50 for mouse PDE10A7
[4] = Clearance in rat at 1 mg/kg, iv and 5 mg/kg, po; format: ADME, organism-based; settings: in vivo
[5] = Half life in rat at 1 mg/kg, iv and 5 mg/kg, po; format: ADME, organism-based; settings: in vivo
[6] = Oral bioavailability in rat at 5 mg/kg; format: ADME, organism-based; settings: in vivo
[7] = Clearance in rat liver microsomes; format: ADME, Microsome; settings: read-out: CLH

Structure (SMILES) | IC50 [1] [µM] | IC50 [2] [µM] | Ratio IC50 [3] | clearance [4] [L/h/kg] | half-life [5] [h] | bioavailability [6] [%] | microsomal CLint [7] [µL/min/mg]
COc1cc2nncc(-c3cnc(N4CCC(C(C)(C)O)CC4)c(C)c3)c2cc1OC1CC1 | 0.0041 | 17.9 | 4360 | 0.93 | 1.48 | 32 | –
CCOc1cc2c(-c3cnc(N4CCC(C(C)(C)O)CC4)c(C)c3)cnnc2cc1C | 0.0409 | > 10 | > 244 | – | – | – | –
CCn1cc(-c2cnc(N3CCC(C(C)(C)O)CC3)c(C)c2)c2cc(OC)c(OC)cc2c1=O | 0.0138 | – | – | – | – | – | 50
COc1cc2c(-c3cnc(N4CCC(C(C)(C)O)CC4)c(C)c3)cnnc2cc1OC(F)F | 0.0686 | 15.9 | 231 | – | – | – | –
COc1cc2nncc(-c3cnc(N4CCC(C(C)(C)O)CC4)c(C)c3)c2cc1N(C)C | 4.5 | > 10 | – | – | – | – | –
COc1cc2nncc(-c3cnc(N4CCC(C(C)(C)O)CC4)c(C(F)F)c3)c2cc1OC | 0.0012 | 6.63 | 5520 | – | 2.08 | 46 | –
COc1cc2c(-c3cnc(N4CCC(C(C)(C)O)CC4)c(C)c3)cnnc2cc1OCC1CC1 | 0.0191 | > 10 | > 523 | – | – | – | –
COc1cc2nncc(-c3cnc(N4CCC(C(C)(C)O)CC4)c(C4CC4)c3)c2cc1OC | 0.0013 | 2.98 | 2290 | – | – | – | –
COc1cc2nncc(-c3cnc(N4CCC(C(C)(C)O)CC4)c(C)c3)c2cc1C | 0.0256 | 25.1 | 980 | – | – | – | –
COc1cc2c(-c3cnc(N4CCC(C(C)(C)O)CC4)c(C)c3)cnnc2cc1F | 0.132 | > 10 | > 75 | – | – | – | –

More lines, now with the values ahead:

IC50 [1] [µM] | IC50 [2] [µM] | Ratio IC50 [3] | clearance [4] [L/h/kg] | half-life [5] [h] | bioavailability [6] [%] | microsomal CLint [7] [µL/min/mg] | Structure (SMILES)
0.0076 | – | – | – | – | – | – | COc1cc2nncc(-c3ccc(NC(C)C)nc3)c2cc1OC
0.047 | – | – | – | – | – | – | COc1cc2ccnc(-c3ccc(NC(C)C)nc3)c2cc1OC
1.09 | – | – | – | – | – | – | COc1cc2snc(-c3ccc(NC(C)C)nc3)c2cc1OC
0.0119 | – | – | – | – | – | 57 | COc1cc2nccc(-c3cnc(N4CCC(C(C)(C)O)CC4)c(C)c3)c2cc1OC
– | 1.7 | 347 | – | 1.54 | 60 | – | COc1cc2nncc(-c3cnc(N4CCC(C(C)(C)O)CC4)c(C)c3)c2cc1OC
0.0063 | 2.25 | 357 | – | – | – | – | COc1cc2nncc(-c3cnc(N4CCC(C(C)(C)O)CC4)c(Cl)c3)c2cc1OC
0.0134 | – | – | – | – | – | 69 | COc1cc2cncc(-c3cnc(N4CCC(C(C)(C)O)CC4)c(C)c3)c2cc1OC
